# Measurements reported in patent US10301624B2, “Targeting human satellite II (HSATII)” (The General Hospital Corporation, priority 2014, dated 2019).
# How the values were obtained:
# Format in all cases: cell-based, human
# COLO205 cells = assay: Proliferation assay (CellTiter-Glo), COLO205
# Procedure: FIG. 8. Proliferation assay of DMSO- or ddC-treated COLO205 (top) and HCT116 (bottom) cells. Cells were seeded at a density of 5×10^2 cells/well in a 96-well plate and quantified daily using CellTiter-Glo luminescent cell viability assay.
# (§1) For proliferation assays, cells were seeded at a density of 5×10^2 cells/well in a 96-well plate (Corning) in presence of DMSO/ddC (100 μM) or one day after transfection with control/HSATII antisense oligonucleotides. Daily quantification was performed using CellTiter-Glo luminescent cell viability assay (Promega) with a SpectraMax M5 microplate reader (Molecular Devices).
# 50 nM ON-TARGETplus Non-targeting pool siRNA (Thermo Scientific) and Mission Pre-designed TERT siRNAs (Sigma Aldrich) or 500 nM Negative Control and HSATII LNA antisense oligonucleotides (Exiqon) were electroporated into COLO205 cells according to the Neon Transfection System (Invitrogen/Life Technology) instructions using the following conditions: 1600V; pulse width 10; 3 pulses. 500 nM Negative Control/HSATII LNA antisense oligonucleotides were transfected in HCT116 and SW620 cells using Lipofectamine 2000 (Invitrogen/Life Technologies) according to the manufacturer's instructions.
# HSATII-chr10 locus = assay: qPCR analysis on HSATII-chr10 locus after DNase I or RNase A treatment of COLO205 extracts; details: COLO205 cells, ddC 100 μM for two weeks vs DMSO
# Description: FIGS. 3A-C. HSATII RNA-to-DNA conversion occurs through a reverse transcription mechanism. (A) qPCR analysis on HSATII-chr10 locus following DNAse I or RNase A treatment and reverse transcription of extracts obtained from COLO205 cells treated with DMSO or 2′, 3′-dideoxycytidine (ddC). (B) RIP lysates prepared from SW620 2D cultures or xenografts were immunoprecipitated with hTERT or IgG antibody, reverse transcribed and validated by qPCR for HSATII and TERC RNA enrichment. (C) qPCR analysis on HSATII-chr10 locus in COLO205 extracts 72 h after non-targeting (siNT) or TERT-targeting (siTERT) siRNA transfection. For all charts, values represent average of at least three independent experiments ±SEM. *P<0.05 (Student's t test).
# All colon cancer cell lines were cultured in RPMI-1640+10% FBS+1% Pen/Strep (Gibco/Life Technologies). DMEM with the same supplements was used for 293T cells. For drug treatment, cells were cultured in presence of either DMSO or 100 μM 2′, 3′-dideoxycytidine (ddC, Sigma) for two weeks. […]
# RNA was reverse transcribed using a SuperScript III First-Strand Synthesis kit (Invitrogen/Life Technologies) and cDNA was analyzed by qPCR using either Power SYBR-Green PCR Maser Mix or TaqMan Universal Master Mix on an ABI/PRISM 7500 platform (all reagents were from Applied Biosystems/Life Technologies). […]
# HCT116 = assay: Cell growth in 3D and 2D culture, HCT116 (with or without shRNA TP53 knockdown); details: for susceptibility to ddC: HCT116 with shRNA TP53 knockdown
# Procedure: (§2) FIGS. 15A-D. Effect of Locked Nucleic Acids targeting HSATII on TP53 wild type Colorectal Cancer cell lines. […] Error bars represent standard deviation. P-value was calculated using student's two tailed t-test.
# FIGS. 19A-F. HCT116 cells are resistant to HSATII targeting and Reverse Transcriptase inhibition. […] Error bars represent standard deviation. P-value was calculated using student's two tailed t-test.
# (§3) Cells were transfected with LNAs either targeting HSATII or with non-specific control Locked Nucleic Acids at 500 nM concentrations using Lipofectamine 2000 according to manufacturer recommended conditions. Cells were trypsinized 24 hours after transfection and seeded at concentration of 1000 cells per well in 96 well plates either in 2 dimensional or 3 dimensional culture conditions. For 2D conditions, the cells were transferred to cell culture treated 96 well plates and grown in RPMI+10% FBS. For 3D conditions, cells were grown in (RPMI+10% FBS+) in ultra-low attachment 96 well plates.
# (§4) Stable cell lines carrying either one of two shRNAs targeting TP53, or a non-target shRNA using lentiviral infection, were generated.
# HCT8 = assay: Cell growth in 3D and 2D culture, HCT8 (with or without shRNA TP53 knockdown)
# Procedure: as §2
# FIGS. 18A-F. TP53 knockdown sensitizes HCT8 cells to HSATII targeted Locked Nucleic Acids and Reverse Transcriptase inhibition. HCT8 colorectal cancer cells are resistant to the reverse transcriptase inhibitor ddC under 3D (A) and 2D (D) growth conditions. shRNA mediated knockdown of TP53 sensitizes the cells to reverse transcriptase inhibition under 3D (B-C), but not 2D (E-F) growth conditions. TP53 knockdown sensitizes HCT8 cells to HSATII targeted Locked Nucleic Acids under 3D (B-C), but not 2D (E-F) growth conditions. Error bars represent standard deviation. P-value was calculated using student's two tailed t-test. *represents P<0.05, **represents P<0.01.
# as §3, §4
# DLD1 = assay: Cell viability in 3D non-adherent and 2D adherent culture, DLD1
# Procedure: (§5) FIGS. 14A-D. Effect of Locked Nucleic Acids targeting HSATII on TP53 mutant Colorectal Cancer cell lines. […] Error bars represent standard deviation. P-value was calculated using student's two tailed t-test. *represents P<0.05.
# as §3
# HCT116 cells = assay: Proliferation assay (CellTiter-Glo), HCT116; details: cells without endogenous HSATII expression, adherent growth, ddC 100 μM vs DMSO
# Procedure: as §1, with “FIG. 8. Proliferation assay of DMSO- or ddC-treated COLO205 (top) and HCT116 (bottom) cells. Cells were seeded at a density of 5×10^2 cells/well in a 96-well plate and quantified daily using CellTiter-Glo luminescent cell viability assay. For” for “For”, “control/[…]” for “control/HSATII”
# SW620 = assay: Cell viability in 3D non-adherent and 2D adherent culture, SW620; details: SW620, non-adherent conditions, Nec-1 10 μM
# Procedure: as §5, §3
compound,measurement,setting,value
"SEQ ID NO:24: Locked nucleic acids (LNA) probes commercially purchased from Exiqon (GATTCCATTCGATGAT) specifically targeting HSATII (LNA-modified, pattern not given here)",cell proliferation,"COLO205 cells; COLO205, 500 nM LNA antisense oligonucleotide vs negative control, five days",affected
"Nc1ccn([C@H]2CC[C@@H](CO)O2)c(=O)n1 [ddC, 2′, 3′-dideoxycytidine]",HSATII RNA species,HSATII-chr10 locus,increasing
same,levels of endogenous HSATII rdDNA,HSATII-chr10 locus,reduced
same,sensitivity to ddC,"HCT116; HCT116, 2D growth conditions",resistant
same,sensitivity to ddC,"HCT116; HCT116, 3D growth conditions",resistant
same,susceptibility to ddC,HCT116; 2D culture,resistance
same,susceptibility to ddC,HCT116; 3D culture,resistance
same,sensitivity to ddC,"HCT8; HCT8, 2D growth conditions",resistant
same,sensitivity to ddC,"HCT8; HCT8, 3D growth conditions",resistant
same,growth inhibition,"HCT8; HCT8 with shRNA TP53 knockdown, 3D culture, ddC",significant growth inhibition
same,growth inhibition,"DLD1; DLD1, 3 dimensional culture, ddC 5 μM",significant growth inhibition
same,cell proliferation,HCT116 cells,no effect
same,cell proliferation,"COLO205 cells; COLO205, ddC 100 μM vs DMSO",suppressed
"CN1C(=O)C(Cc2c[nH]c3ccccc23)NC1=S (stereo not drawn) [Nec-1, Necrostatin-1]",rescue of HSATII LNA-induced growth inhibition,"DLD1; DLD1, non-adherent conditions, Nec-1 10 μM",rescued
same,rescue of HSATII LNA-induced growth inhibition,SW620,rescued
